In ChEMBL document CHEMBL5338749, “Rapid Elaboration of Fragments into Leads Applied to Bromodomain-3 Extra-Terminal Domain” (J Med Chem, 2023):
“And” between values parts separate entries of the source, which are not always exact repeats. Equal entries are not always repeated.

Tests used:
[1] = molecular target: T1, Bromodomain-containing protein 3 (Homo sapiens, UniProt Q15059); assay: Binding affinity to 15N-labeled recombinant BRD3-ET domain (unknown origin) expressed in Escherichia coli Rosetta (DE3) pLysS assessed as dissociation constant by […] HSQC NMR analysis
Target sequence in this assay (Q15059 whole entry, the tested form may be a part): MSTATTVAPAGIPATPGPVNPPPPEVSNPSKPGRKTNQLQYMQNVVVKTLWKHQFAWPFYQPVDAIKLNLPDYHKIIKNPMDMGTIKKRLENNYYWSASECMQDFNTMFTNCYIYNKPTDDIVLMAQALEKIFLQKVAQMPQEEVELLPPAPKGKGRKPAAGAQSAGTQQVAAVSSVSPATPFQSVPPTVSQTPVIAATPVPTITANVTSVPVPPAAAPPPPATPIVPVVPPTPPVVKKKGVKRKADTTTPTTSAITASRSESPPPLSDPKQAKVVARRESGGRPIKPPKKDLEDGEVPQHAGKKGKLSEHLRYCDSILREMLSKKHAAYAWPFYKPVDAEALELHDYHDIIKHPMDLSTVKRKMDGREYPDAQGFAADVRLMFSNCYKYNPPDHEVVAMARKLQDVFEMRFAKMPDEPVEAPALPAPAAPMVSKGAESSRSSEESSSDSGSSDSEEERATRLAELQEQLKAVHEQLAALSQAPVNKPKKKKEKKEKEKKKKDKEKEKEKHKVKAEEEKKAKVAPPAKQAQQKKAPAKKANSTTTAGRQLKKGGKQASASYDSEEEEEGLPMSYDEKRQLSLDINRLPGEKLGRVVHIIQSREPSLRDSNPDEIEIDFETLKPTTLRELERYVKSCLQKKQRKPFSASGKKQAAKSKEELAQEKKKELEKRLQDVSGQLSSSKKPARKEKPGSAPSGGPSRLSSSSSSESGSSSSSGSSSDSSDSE

[2] = molecular target: T1, Bromodomain-containing protein 3; assay: Binding affinity to recombinant BRD3-ET domain (unknown origin) expressed in Escherichia coli Rosetta (DE3) pLysS assessed as dissociation constant by 1H- NMR analysis
Target sequence in this assay (Q15059 whole entry, the tested form may be a part): as above

[3] = molecular target: T1, Bromodomain-containing protein 3; assay: Binding affinity to recombinant BRD3-ET domain (unknown origin) expressed in Escherichia coli Rosetta (DE3) pLysS assessed as dissociation constant by 19F- NMR analysis
Target sequence in this assay (Q15059 whole entry, the tested form may be a part): as above

[4] = molecular target: T1, Bromodomain-containing protein 3; assay: Binding affinity to biotinylated BRD3-ET domain (unknown origin) expressed in Escherichia coli Rosetta (DE3) pLysS assessed as dissociation constant at 4 degreeC by SPR analysis
Target sequence in this assay (Q15059 whole entry, the tested form may be a part): as above

[5] = molecular target: T1, Bromodomain-containing protein 3; assay: Binding affinity to biotinylated BRD3-ET domain (unknown origin) expressed in Escherichia coli Rosetta (DE3) pLysS assessed as dissociation off-rate constant at 4 degreeC by SPR analysis
Target sequence in this assay (Q15059 2-726 limits assumed): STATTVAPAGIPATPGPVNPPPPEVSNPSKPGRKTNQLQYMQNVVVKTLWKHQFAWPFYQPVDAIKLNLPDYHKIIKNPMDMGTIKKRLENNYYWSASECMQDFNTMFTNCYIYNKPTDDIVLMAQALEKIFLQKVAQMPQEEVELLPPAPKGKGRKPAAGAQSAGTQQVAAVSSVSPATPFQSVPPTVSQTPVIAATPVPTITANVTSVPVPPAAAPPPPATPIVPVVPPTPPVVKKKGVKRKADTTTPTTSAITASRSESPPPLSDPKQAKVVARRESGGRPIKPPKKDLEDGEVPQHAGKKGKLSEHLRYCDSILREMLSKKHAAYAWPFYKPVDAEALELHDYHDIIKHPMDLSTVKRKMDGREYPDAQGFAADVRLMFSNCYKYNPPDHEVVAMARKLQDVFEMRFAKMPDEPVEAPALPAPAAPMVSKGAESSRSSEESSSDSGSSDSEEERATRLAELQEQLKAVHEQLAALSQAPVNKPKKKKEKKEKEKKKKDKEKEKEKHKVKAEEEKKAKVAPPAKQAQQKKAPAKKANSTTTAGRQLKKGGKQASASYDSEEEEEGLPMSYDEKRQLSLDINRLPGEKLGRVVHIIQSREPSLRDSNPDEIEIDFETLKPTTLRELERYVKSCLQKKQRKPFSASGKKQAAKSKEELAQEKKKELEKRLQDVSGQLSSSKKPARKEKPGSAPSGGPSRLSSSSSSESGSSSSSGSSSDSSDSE

In the case of O=C(NC1CCCc2c1[nH]c1ccc(F)cc21)[C@@H]1C=CCN1 (stereo not given in full) [listing 1 of 3 here], the Kd [1] is reported as 64 µM.

With Fc1ccc2[nH]c3c(c2c1)CCCC3NCC1CCNCC1 (stereo not given) [listing 1 of 3 here] the Kd [2] was 61 µM and the Kd [3] was 22 µM.

In the case of Fc1ccc2[nH]c3c(c2c1)CCCC3NCC1CCNC1 (stereo not given) [listing 1 of 3 here], the Kd [4] is reported as 11 µM.

Molecule O=C(CC1CCCNC1)NC1CCCc2c1[nH]c1ccc(F)cc21 (stereo not given) has a Kd [2] of 33 µM and a Kd [4] of 25 µM.

Fc1ccc2[nH]c3c(c2c1)CCCC3NCCC1CCCNC1 (stereo not given) [listing 1 of 3 here] was tested, and the Kd [4] was 7.8 µM.

In the case of CC(=O)NC1CCCc2c1[nH]c1ccc(F)cc21 (stereo not given), the Kd [4] is reported as 260 µM and the Kd [1] is reported as 150 µM.

With CC(C)C[C@H](N)CC(=O)NC1CCCc2c1[nH]c1ccc(F)cc21 (stereo not given in full) [listing 1 of 3 here] the K [5] was 0.26 s⁻¹ and 0.27 s⁻¹.

OC1CCCc2c1[nH]c1ccccc21 (stereo not given) gave a Kd [4] of 380 µM and a Kd [1] of 230 µM.

For CC(C)C[C@H](N)CC(=O)NC1CCCc2c1[nH]c1ccc(F)cc21 (stereo not given in full) [listing 2 of 3 here], the Kd [2] was 39 µM.

With Fc1ccc2[nH]c3c(c2c1)CCCC3NCC1CCNC1 (stereo not given) [listing 2 of 3 here] the K [5] was 0.22 s⁻¹ and 0.33 s⁻¹.

With O=C(NC1CCCc2c1[nH]c1ccc(F)cc21)C1CCNC1 (stereo not given) the Kd [2] was 54 µM and the Kd [4] was 31 µM.

In the case of Fc1ccc2[nH]c3c(c2c1)CCCC3NCC1CCNCC1 (stereo not given) [listing 2 of 3 here], the K [5] is reported as 0.3 s⁻¹ and 0.49 s⁻¹.

CC(C)(C)OC(=O)N1CCC(CNC2CCCc3c2[nH]c2ccc(F)cc32)C1 (stereo not given) showed a Kd [4] of 93 µM and a Kd [1] of 30 µM.

Work on Fc1ccc2[nH]c3c(c2c1)CCCC3NCCC1CCCNC1 (stereo not given) [listing 2 of 3 here] yielded a Kd [2] of 24 µM and a Kd [3] of 18 µM.

Work on Fc1ccc2[nH]c3c(c2c1)CCCC3NCC1CCNC1 (stereo not given) [listing 3 of 3 here] yielded a Kd [2] of 93 µM and a Kd [3] of 68 µM.

In the case of O=C(NC1CCCc2c1[nH]c1ccc(F)cc21)[C@@H]1C=CCN1 (stereo not given in full) [listing 2 of 3 here], the Kd [4] is reported as 47 µM.

Work on Fc1ccc2[nH]c3c(c2c1)CCCC3NCCC1CCCNC1 (stereo not given) [listing 3 of 3 here] yielded a K [5] of 0.28 s⁻¹.

Molecule CC(C)(C)OC(=O)N1CCC(CNC2CCCc3c2[nH]c2ccc(F)cc32)CC1 (stereo not given) has a Kd [4] of 86 µM and a Kd [1] of 31 µM.

Molecule CC(C)C[C@H](N)CC(=O)NC1CCCc2c1[nH]c1ccc(F)cc21 (stereo not given in full) [listing 3 of 3 here] has a Kd [4] of 11 µM.

Work on Fc1ccc2[nH]c3c(c2c1)CCCC3NCC1CCNCC1 (stereo not given) [listing 3 of 3 here] yielded a Kd [4] of 17 µM.

O=C(NC1CCCc2c1[nH]c1ccc(F)cc21)[C@@H]1C=CCN1 (stereo not given in full) [listing 3 of 3 here] was tested, and the K [5] was 0.13 s⁻¹ and 0.22 s⁻¹.
